Reference: PubChem BioAssay AID308 (DTP/NCI, 2004)
“And” between values parts separate entries of the source, which are not always exact repeats. Equal values may be shown once. Toxic doses and inconclusive results are not listed.

Tested on: BDF1 mice, L1210 6-MP/6-TG resistant leukemia ip, survival T/C
Test: NCI In Vivo Anticancer Drug Screen. Data for tumor model L1210 Leukemia resistant to 6-MP and 6-Thioguanine; NSC 755, NSC 752 (intraperitoneal) in B6D2F1 (BDF1) mice
Settings: endpoint: mean survival time, higher = longer survival
Description: The antitumor activity of compounds was measured in mice bearing transplantable tumors. Survival or tumor size were measured and the results are expressed as the measurement made in the treated group (T) divided by the measurement made in the vehicle treated control group (C). The tumor model used in this assay is L1210 Leukemia resistant to 6-MP and 6-Thioguanine; NSC 755, NSC 752 (intraperitoneal) in B6D2F1 (BDF1) mice

[1] = dose: 25.0 mg/kg/injection, schedule: Q01DX Z (ip), vehicle: carboxymethylcellulose (CMC)

## Clc1ncnc2c1ncn2C1CCCCO1 (centres undefined)
dose: 62.0 mg/kg/injection, schedule: Q01DX Z (ip), vehicle: other
  T/C: 96 % of control
dose: 125.0 mg/kg/injection, schedule: Q01DX Z (ip), vehicle: other
  T/C: 91 % of control

## C[C@@H]1C[C@H]2CC[C@H](O2)[C@H](C)C(=O)O[C@@H](C)C[C@@H]2CC[C@@H](O2)[C@@H](C)C(=O)O[C@H](C)C[C@H]2CC[C@H](O2)[C@H](C)C(=O)O[C@@H](C)C[C@@H]2CC[C@@H](O2)[C@@H](C)C(=O)O1
dose: 10.0 mg/kg/injection, schedule: Q01DX Z (ip), vehicle: other
  T/C: 101 % of control
dose: 15.0 mg/kg/injection, schedule: Q01DX Z (ip), vehicle: other
  T/C: 101 % of control
dose: 20.0 mg/kg/injection, schedule: Q01DX Z (ip), vehicle: other
  T/C: 104 % of control
dose: 30.0 mg/kg/injection, schedule: Q01DX Z (ip), vehicle: other
  T/C: 94 % of control
dose: 45.0 mg/kg/injection, schedule: Q01DX Z (ip), vehicle: carboxymethylcellulose (CMC)
  T/C: 100 % of control
dose: 90.0 mg/kg/injection, schedule: Q01DX Z (ip), vehicle: carboxymethylcellulose (CMC)
  T/C: 93 % of control
dose: 180.0 mg/kg/injection, schedule: Q01DX Z (ip), vehicle: carboxymethylcellulose (CMC)
  T/C: 96 % of control
dose: 360.0 mg/kg/injection, schedule: Q01DX Z (ip), vehicle: carboxymethylcellulose (CMC)
  T/C: 95 % of control

## CNS(=O)(=O)c1ncnc2nc[nH]c12
dose: 13.0 mg/kg/injection, schedule: Q01DX Z (ip), vehicle: carboxymethylcellulose (CMC)
  T/C: 114 % of control
dose: 32.0 mg/kg/injection, schedule: Q01DX Z (ip), vehicle: carboxymethylcellulose (CMC)
  T/C: 114 % of control
dose: 47.0 mg/kg/injection, schedule: Q01DX Z (ip), vehicle: carboxymethylcellulose (CMC)
  T/C: 123 % of control
dose: 58.0 mg/kg/injection, schedule: Q01DX Z (ip), vehicle: carboxymethylcellulose (CMC)
  T/C: 108 % of control
dose: 70.6 mg/kg/injection, schedule: Q01DX Z (ip), vehicle: carboxymethylcellulose (CMC)
  T/C: 117 % of control
dose: 107.0 mg/kg/injection, schedule: Q01DX Z (ip), vehicle: carboxymethylcellulose (CMC)
  T/C: 113 % of control
dose: 160.5 mg/kg/injection, schedule: Q01DX Z (ip), vehicle: carboxymethylcellulose (CMC)
  T/C: 105 % of control

## O=c1[nH]cnc2c1nnn2C1OC(CO)C(O)C1O (centres undefined)
dose: 50.0 mg/kg/injection, schedule: Q01DX009 (ip), vehicle: saline
  T/C: 111 % of control
dose: 76.0 mg/kg/injection, schedule: Q01DX009 (ip), vehicle: saline
  T/C: 118 % of control
dose: 114.0 mg/kg/injection, schedule: Q01DX009 (ip), vehicle: saline
  T/C: 156 % of control and 171 % of control
dose: 256.0 mg/kg/injection, schedule: Q01DX009 (ip), vehicle: saline
  T/C: 112 % of control

## CS(=O)(=O)OCCCl
dose: 75.0 mg/kg/injection, schedule: Q01DX Z (ip), vehicle: saline
  T/C: 115 % of control
dose: 100.0 mg/kg/injection, schedule: Q01DX Z (ip), vehicle: saline
  T/C: 108 % of control
dose: 150.0 mg/kg/injection, schedule: Q01DX Z (ip), vehicle: saline
  T/C: 116 % of control

## N#CCSc1ncnc2nc[nH]c12
dose: 12.5 mg/kg/injection, schedule: Q01DX Z (ip), vehicle: carboxymethylcellulose (CMC)
  T/C: 86 % of control
[1]
  T/C: 88 % of control
dose: 37.5 mg/kg/injection, schedule: Q01DX Z (ip), vehicle: carboxymethylcellulose (CMC)
  T/C: 87 % of control
dose: 75.0 mg/kg/injection, schedule: Q01DX Z (ip), vehicle: carboxymethylcellulose (CMC)
  T/C: 90 % of control
dose: 100.0 mg/kg/injection, schedule: Q01DX Z (ip), vehicle: carboxymethylcellulose (CMC)
  T/C: 100 % of control

## Nc1ncnc2[nH]ncc12
dose: 7.5 mg/kg/injection, schedule: Q01DX Z (ip), vehicle: carboxymethylcellulose (CMC)
  T/C: 105 % of control
dose: 10.0 mg/kg/injection, schedule: Q01DX Z (ip), vehicle: carboxymethylcellulose (CMC)
  T/C: 92 % of control
dose: 15.0 mg/kg/injection, schedule: Q01DX Z (ip), vehicle: carboxymethylcellulose (CMC)
  T/C: 94 % of control
[1]
  T/C: 97 % of control

## CCOC(=O)Sc1ncnc2nc[nH]c12
dose: 14.0 mg/kg/injection, schedule: Q01DX Z (ip), vehicle: saline
  T/C: 95 % of control
dose: 28.0 mg/kg/injection, schedule: Q01DX Z (ip), vehicle: saline
  T/C: 95 % of control
dose: 56.0 mg/kg/injection, schedule: Q01DX Z (ip), vehicle: saline
  T/C: 90 % of control

## CCCC(=O)OCC1OC(n2cnc3c(=S)nc(N)[nH]c32)C(OC(=O)CCC)C1OC(=O)CCC (centres undefined)
dose: 6.0 mg/kg/injection, schedule: Q01DX Z (ip), vehicle: carboxymethylcellulose (CMC)
  T/C: 113 % of control
dose: 12.0 mg/kg/injection, schedule: Q01DX Z (ip), vehicle: carboxymethylcellulose (CMC)
  T/C: 93 % of control
dose: 24.0 mg/kg/injection, schedule: Q01DX Z (ip), vehicle: carboxymethylcellulose (CMC)
  T/C: 98 % of control
